Assay results from US20260258035A1, “FIVE-MEMBERED AND SIX-MEMBERED NITROGEN-CONTAINING COMPOUND, AND INTERMEDIATE, PREPARATION METHOD AND USE THEREOF” (HANGZHOU SYNRX THERAPEUTICS BIOMEDICAL TECHNOLOGY CO., LTD., priority 2022, published 2026).

Biological target: PARG (Homo sapiens, UniProt Q86W56)
Assay: Biochemical assay (PARG, TFMU-ADPr substrate)
[1] = 4 nM PARG, 66.2 uM TFMU-ADPr, 3 min at room temperature

Chain of PARG (Q86W56 whole entry): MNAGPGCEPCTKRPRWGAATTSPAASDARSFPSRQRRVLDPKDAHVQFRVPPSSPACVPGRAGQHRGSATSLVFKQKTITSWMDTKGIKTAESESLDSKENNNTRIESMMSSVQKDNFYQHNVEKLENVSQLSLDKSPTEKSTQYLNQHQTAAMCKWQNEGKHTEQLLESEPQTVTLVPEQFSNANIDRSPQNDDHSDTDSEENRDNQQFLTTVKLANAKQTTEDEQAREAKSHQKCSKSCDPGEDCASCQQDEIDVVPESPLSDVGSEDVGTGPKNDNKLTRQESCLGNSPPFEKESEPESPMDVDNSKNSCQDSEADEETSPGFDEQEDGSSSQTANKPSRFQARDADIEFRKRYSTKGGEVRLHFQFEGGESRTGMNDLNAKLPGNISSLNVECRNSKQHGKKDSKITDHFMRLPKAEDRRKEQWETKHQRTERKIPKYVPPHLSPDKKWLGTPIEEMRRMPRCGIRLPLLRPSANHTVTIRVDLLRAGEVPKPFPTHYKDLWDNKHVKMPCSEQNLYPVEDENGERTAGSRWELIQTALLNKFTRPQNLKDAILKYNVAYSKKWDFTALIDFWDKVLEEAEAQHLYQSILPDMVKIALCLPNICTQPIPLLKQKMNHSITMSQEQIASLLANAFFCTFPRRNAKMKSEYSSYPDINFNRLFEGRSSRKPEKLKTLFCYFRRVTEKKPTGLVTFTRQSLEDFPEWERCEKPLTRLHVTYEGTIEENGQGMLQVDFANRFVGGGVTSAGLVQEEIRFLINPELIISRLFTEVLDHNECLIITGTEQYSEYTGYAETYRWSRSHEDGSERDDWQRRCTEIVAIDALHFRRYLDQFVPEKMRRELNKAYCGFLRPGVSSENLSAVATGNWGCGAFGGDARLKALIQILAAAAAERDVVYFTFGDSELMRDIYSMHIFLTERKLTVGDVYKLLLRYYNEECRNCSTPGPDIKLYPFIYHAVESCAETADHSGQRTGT

| IC50 (PARG, TFMU-ADPr substrate) [nM] | IC50 [1] [nM] | Structure (SMILES) |
| --- | --- | --- |
| 1540 |  | Cc1ncc(-c2cnc3c(N4CCN(C(=O)C(C)C)CC4)cc(S(=O)(=O)NC4(C#N)CC4)cn23)s1 [Example 1, N-(1-cyanocyclopropyl)-8-(4-isobutyrylpiperazin-1-yl)-3-(2-methylthiazol-5-yl)imidazo[1,2-a]pyridine-6-sulfonamide] |
| 2100 |  | Cc1nnc(-c2cnc3c(N4CCN(C(=O)C(C)C)CC4)cc(S(=O)(=O)NC4(C#N)CC4)cn23)s1 [Example 2, N-(1-cyanocyclopropyl)-8-(4-isobutyrylpiperazin-1-yl)-3-(5-methyl-1,3,4-thiadiazol-2-yl)imidazo[1,2-a]pyridine-6-sulfonamide] |
| 33.1 |  | Cc1cnc(-c2cnc3c(N4CCN(C(=O)C(C)C)CC4)cc(S(=O)(=O)NC4(C#N)CC4)cn23)s1 [Example 3, N-(1-cyanocyclopropyl)-8-(4-isobutyrylpiperazin-1-yl)-3-(5-methylthiazol-2-yl)imidazo[1,2-a]pyridine-6-sulfonamide] |
| 9690 |  | CC(C)C(=O)N1CCN(c2cc(S(=O)(=O)NC3(C#N)CC3)cn3c(-c4cc5n(n4)CCCC5F)cnc23)CC1 (stereo not shown) [Example 8] |
|  | 500 to 1000 | CC(C)C(=O)N1CCN(c2cc(S(=O)(=O)NC3(C#N)CC3)cn3c(-c4cc5n(n4)CC(F)C5)cnc23)CC1 (stereo not shown) [Example 10, N-(1-cyanocyclopropyl)-3-(5-fluoro-5,6-dihydro-4H-pyrrolo[1,2-b]pyrazol-2-yl)-8-(4-isobutyrylpiperazin-1-yl)imidazo[1,2-a]pyridine-6-sulfonamide] |
| 10.9 | < 100 | CC(=O)N1CC2(CC=C(c3cc(S(=O)(=O)NC4(C#N)CC4)cn4c(-c5nnc(C(F)F)s5)cnc34)C2)C1 [Example 13, 8-(2-acetyl-2-azaspiro[3.4]oct-6-en-6-yl)-N-(1-cyanocyclopropyl)-3-(5-(difluoromethyl)-1,3,4-thiadiazol-2-yl)imidazo[1,2-a]pyridine-6-sulfonamide] |
| 29.7 | < 100 | CC(C)C(=O)N1CCN(c2cc(S(=O)(=O)NC3COC3)cn3c(-c4nnc(C(F)F)s4)cnc23)CC1 [Example 16, 3-(5-(difluoromethyl)-1,3,4-thiadiazol-2-yl)-8-(4-isobutyrylpiperazin-1-yl)-N-(oxetan-3-yl)imidazo[1,2-a]pyridine-6-sulfonamide] |
| 40 | < 100 | C=CC(=O)N1CC=C(c2cnc3c(N4CCN(C(=O)C(C)C)CC4)cc(S(=O)(=O)NC4(C#N)CC4)cn23)C1 [Example 18, 3-(1-acryloyl-2,5-dihydro-1H-pyrrol-3-yl)-N-(1-cyanocyclopropyl)-8-(4-isobutyrylpiperazin-1-yl)imidazo[1,2-a]pyridine-6-sulfonamide] |
| 7240 |  | C=CC(=O)N1CCC(c2cnc3c(N4CCN(C(=O)C(C)C)CC4)cc(S(=O)(=O)NC4(C#N)CC4)cn23)C1 (stereo not shown) [Example 19, 3-(1-acryloylpyrrolidin-3-yl)-N-(1-cyanocyclopropyl)-8-(4-isobutyrylpiperazin-1-yl)imidazo[1,2-a]pyridine-6-sulfonamide] |
| 178 | < 100 | CCC(=O)N1CC=C(c2cnc3c(N4CCN(C(=O)C(C)C)CC4)cc(S(=O)(=O)NC4(C#N)CC4)cn23)C1 [Example 20, N-(1-cyanocyclopropyl)-8-(4-isobutyrylpiperazin-1-yl)-3-(1-propionyl-2,5-dihydro-1H-pyrrol-3-yl)imidazo[1,2-a]pyridine-6-sulfonamide] |
| 912 |  | C=CC(=O)N1CC=C(c2cnc3c(N4CCN(C(=O)C(C)C)CC4)cc(S(=O)(=O)NC4(C#N)CC4)cn23)CC1 [Example 21, 3-(1-acryloyl-1,2,3,6-tetrahydropyridin-4-yl)-N-(1-cyanocyclopropyl)-8-(4-isobutyrylpiperazin-1-yl)imidazo[1,2-a]pyridine-6-sulfonamide] |
| 33 | < 100 | Cc1ncc(-c2cnn3c(N4CCN(C(=O)C(C)C)CC4)cc(S(=O)(=O)NC4(C#N)CC4)cc23)s1 [Example 28, N-(1-cyanocyclopropyl)-7-(4-isobutyrylpiperazin-1-yl)-3-(2-methylthiazol-5-yl)pyrazolo[1,5-a]pyridine-5-sulfonamide] |
| 649 | 500 to 1000 | CC(C)C(=O)N1CCN(c2cc(S(=O)(=O)NC(C3CC3)C(F)(F)F)cn3c(-c4nnc(C(F)F)s4)ncc23)CC1 (stereo not shown) [Example 36, N-(1-cyclopropyl-2,2,2-trifluoroethyl)-3-(5-(difluoromethyl)-1,3,4-thiadiazol-2-yl)-8-(4-isobutyrylpiperazin-1-yl)imidazo[1,5-a]pyridine-6-sulfonamide] |
| 16.4 | < 100 | CN1CCN(c2cc(S(=O)(=O)NC3(C#N)CC3)cn3c(-c4nnc(C(F)F)s4)ncc23)CC1 [Example 38, N-(1-cyanocyclopropyl)-3-(5-(difluoromethyl)-1,3,4-thiadiazol-2-yl)-8-(4-methylpiperazin-1-yl)imidazo[1,5-a]pyridine-6-sulfonamide] |
| 29.8 | < 100 | CN1CCN(c2cc(S(=O)(=O)NC3(C#N)CC3)cn3c(-c4nnc(C(F)F)s4)ncc23)CC1=O [Example 41, N-(1-cyanocyclopropyl)-3-(5-(difluoromethyl)-1,3,4-thiadiazol-2-yl)-8-(4-methyl-3-oxopiperazin-1-yl)imidazo[1,5-a]pyridine-6-sulfonamide] |
| 18 | < 100 | N#CC1(NS(=O)(=O)c2cc(N3CCC(O)C3)c3cnc(-c4nnc(C(F)F)s4)n3c2)CC1 (stereo not shown) [Example 42, N-(1-cyanocyclopropyl)-3-(5-(difluoromethyl)-1,3,4-thiadiazol-2-yl)-8-(3-hydroxypyrrolidin-1-yl)imidazo[1,5-a]pyridine-6-sulfonamide] |
| 10.7 | < 100 | Cc1ncc2n1CCN(c1cc(S(=O)(=O)NC3(C#N)CC3)cn3c(-c4nnc(C(F)F)s4)ncc13)C2 [Example 44, N-(1-cyanocyclopropyl)-3-(5-(difluoromethyl)-1,3,4-thiadiazol-2-yl)-8-(3-methyl-5,6-dihydroimidazo[1,5-a]pyrazin-7(8H)-yl)imidazo[1,5-a]pyridine-6-sulfonamide] |
| 135 | 100 to 500 | COc1ccc(N(C)c2cc(S(=O)(=O)NC3(C#N)CC3)cn3c(-c4nnc(C(F)F)s4)ncc23)cc1 [Example 45, N-(1-cyanocyclopropyl)-3-(5-(difluoromethyl)-1,3,4-thiadiazol-2-yl)-8-((4-methoxyphenyl)(methyl)amino)imidazo[1,5-a]pyridine-6-sulfonamide] |
| 6.31 | < 100 | O=S(=O)(NC1(CF)CC1)c1cc(N2CCC(O)C2)c2cnc(-c3nnc(C(F)F)s3)n2c1 (stereo not shown) [Example 46, 3-(5-(difluoromethyl)-1,3,4-thiadiazol-2-yl)-N-(1-(fluoromethyl)cyclopropyl)-8-(3-hydroxypyrrolidin-1-yl)imidazo[1,5-a]pyridine-6-sulfonamide] |
| 5.91 | < 100 | N#CC1(NS(=O)(=O)c2cc(N3CCC(OCC(F)(F)F)CC3)c3cnc(-c4nnc(C(F)F)s4)n3c2)CC1 [Example 47, N-(1-cyanocyclopropyl)-3-(5-(difluoromethyl)-1,3,4-thiadiazol-2-yl)-8-(4-(2,2,2-trifluoroethoxy)piperidin-1-yl)imidazo[1,5-a]pyridine-6-sulfonamide] |
| 13.2 | < 100 | N#CC1(NS(=O)(=O)c2cc(N3CCC(OC(F)(F)F)CC3)c3cnc(-c4nnc(C(F)F)s4)n3c2)CC1 [Example 48, N-(1-cyanocyclopropyl)-3-(5-(difluoromethyl)-1,3,4-thiadiazol-2-yl)-8-(4-(trifluoromethoxy)piperidin-1-yl)imidazo[1,5-a]pyridine-6-sulfonamide] |
| 38.4 | < 100 | CC(C)C(=O)N1CCN(c2cc(S(=O)(=O)NC3(COC(F)(F)F)CC3)cn3c(-c4nnc(C(F)F)s4)ncc23)CC1 [Example 49, 3-(5-(difluoromethyl)-1,3,4-thiadiazol-2-yl)-8-(4-isobutyrylpiperazin-1-yl)-N-(1-((trifluoromethoxy)methyl)cyclopropyl)imidazo[1,5-a]pyridine-6-sulfonamide] |
| 41.7 | < 100 | CC1(O)CCN(c2cc(S(=O)(=O)NC3(CF)COC3)cn3c(-c4nnc(C(F)F)s4)ncc23)CC1 [Example 73, 3-(5-(difluoromethyl)-1,3,4-thiadiazol-2-yl)-N-(3-(fluoromethyl)oxetan-3-yl)-8-(4-hydroxy-4-methylpiperidin-1-yl)imidazo[1,5-a]pyridine-6-sulfonamide] |
| 52.5 | < 100 | N#CC1(NS(=O)(=O)c2cc(N3CC4COCC4C3)c3cnc(-c4nnc(C(F)F)s4)n3c2)CC1 (stereo not shown) [Example 79, N-(1-cyanocyclopropyl)-3-(5-(difluoromethyl)-1,3,4-thiadiazol-2-yl)-8-(tetrahydro-1H-furo[3,4-c]pyrrol-5(3H)-yl)imidazo[1,5-a]pyridine-6-sulfonamide] |
|  | > 1000 | CC(C)C(=O)N1CCN(c2cc(S(=O)(=O)N[C@H]3C[C@@H]3F)cn3c(-c4nnc(C(F)F)s4)ncc23)CC1 [Example 81, 3-(5-(difluoromethyl)-1,3,4-thiadiazol-2-yl)-N-((1S,2S)-2-fluorocyclopropyl)-8-(4-isobutyrylpiperazin-1-yl)imidazo[1,5-a]pyridine-6-sulfonamide] |
| 347 | 100 to 500 | CC(N1CCN(c2cc(S(=O)(=O)NC3(C#N)CC3)cn3c(-c4nnc(C(F)F)s4)ncc23)C[C@H]1C)C(F)(F)F (stereo partly drawn) [Example 83, N-(1-cyanocyclopropyl)-3-(5-(difluoromethyl)-1,3,4-thiadiazol-2-yl)-8-((3R)-3-methyl-4-(1,1,1-trifluoropropan-2-yl)piperazin-1-yl)imidazo[1,5-a]pyridine-6-sulfonamide] |
| 115 | 100 to 500 | N#CC1(NS(=O)(=O)c2cc(N3CCC(O)(C(F)(F)F)CC3)c3cnc(-c4nnc(C(F)F)s4)n3c2)CC1 [Example 89, N-(1-cyanocyclopropyl)-3-(5-(difluoromethyl)-1,3,4-thiadiazol-2-yl)-8-(4-hydroxy-4-(trifluoromethyl)piperidin-1-yl)imidazo[1,5-a]pyridine-6-sulfonamide] |
